Where two headings read alike, the source gives them in different places.
Assays:
[1] = tested on: human lymphocyte Molt4/clone 8; experiment: Cytostatic activity assay, Molt4/clone 8 cells; assay type: cell-based; conditions: read-out: IC50 Molt4/C8 (compound concentration required to inhibit tumor cell proliferation by 50%)
human lymphocyte CEM = experiment: Cytostatic activity assay, CEM cells; assay type: cell-based; conditions: read-out: IC50 CEM (compound concentration required to inhibit tumor cell proliferation by 50%)
HIV-1 (IIIB) = experiment: Inhibition of HIV-1 (IIIB)-induced cytopathicity (giant cell formation) in CEM cells; assay type: cell-based; conditions: read-out: EC50 HIV-1 (concentration required to inhibit HIV-induced giant cell formation by 50%); HIV-1, CEM cell cultures
Protocol: (§1) A variety of glycopeptide antibiotic derivatives of vancomycin, eremomycin and teicoplanin including their aglycon derivatives were evaluated for their inhibitory activity against HIV-1 (IIIB) and HIV-2(ROD) in CEM cell cultures.

murine leukemia L1210 = experiment: Cytostatic activity assay, L1210 cells; assay type: cell-based; conditions: read-out: IC50 L1210 (compound concentration required to inhibit tumor cell proliferation by 50%)
HIV-2(ROD) = experiment: Inhibition of HIV-2 (ROD)-induced cytopathicity (giant cell formation) in CEM cells; assay type: cell-based; conditions: read-out: EC50 HIV-2 (concentration required to inhibit HIV-induced giant cell formation by 50%); HIV-2, CEM cell cultures
Protocol: as §1

VZV (wild-type strains) = experiment: Anti-VZV assay (wild-type strains): virus-induced cytopathicity in HEL cell cultures; assay type: cell-based, varicella-zoster virus; conditions: for EC50: HEL cell cultures
HEL cells [2] = conditions: read-out: CC50 (HEL); HEL cells; anti-VZV table
HEL cells [3] = conditions: anti-VZV table
[4] = VZV strain OKA, read-out: EC50 VZV (OKA)
[5] = VZV strain YS, read-out: EC50 VZV (YS)

Molecule	IC50 [1]	IC50 (human lymphocyte CEM)	EC50 (HIV-1 (IIIB))	IC50 (murine leukemia L1210)	EC50 (HIV-2(ROD))	EC50 (VZV (wild-type strains); [4])	EC50 (VZV (wild-type strains); [5])	CC50 (HEL cells [2])	MTC (HEL) (HEL cells [3])	activity against VZV (VZV (wild-type strains))
CCCCc1ccc(CNCc2c(O)cc3c(c2O)-c2cc(ccc2O)C2NC(=O)C4NC(=O)C5NC(=O)C(Cc6ccc(c(Cl)c6)Oc6cc4cc(c6O)Oc4ccc(cc4Cl)C(O)C(NC2=O)C(=O)NC3C(=O)NC)NC(=O)C(N)c2ccc(O)c(c2)Oc2cc(O)cc5c2)cc1 (stereo not shown) [Compound 48]	> 100 µM	> 100 µM	9.7 ± 9 µM	> 100 µM	12.3 ± 6.8 µM	–	–	–	–	–
NC1C(=O)NC2Cc3ccc(c(Cl)c3)Oc3cc4cc(c3O)Oc3ccc(cc3Cl)C(O)C3NC(=O)C(NC(=O)C4NC(=O)C(NC2=O)c2cc(O)cc(c2)Oc2cc1ccc2O)c1ccc(O)c(c1)-c1c(cc(O)c(CN2CCN(N=Cc4ccc(Cl)cc4)CC2)c1O)C(C(=O)O)NC3=O (stereo not shown) [Compound 17]	> 100 µM	> 100 µM	8 ± 2.8 µM	97 ± 4.3 µM	22 ± 3.5 µM	4.1 µM	4.2 µM	> 50 µM	≧20-200 μM	–
CCCCCCCCCCNC(=O)C(N)CCCCNC(=O)C1NC(=O)C2NC(=O)C(NC(=O)C3NC(=O)C4NC(=O)C(Cc5ccc(c(Cl)c5)Oc5cc3cc(c5O)Oc3ccc(cc3Cl)C2O)NC(=O)C(N)c2ccc(O)c(c2)Oc2cc(O)cc4c2)c2ccc(O)c(c2)-c2c(O)cc(O)cc21 (stereo not shown) [Compound 23]	22 ± 22 µM	58 ± 35 µM	2.6 ± 2 µM	5.7 ± 0.27 µM	5.5 ± 0.7 µM	–	–	–	–	–
CCCCc1ccc(CNCc2c(O)cc3c(c2O)-c2cc(ccc2O)C2NC(=O)C4NC(=O)C(CC(N)=O)NC(=O)C(NC(=O)C(CC(C)C)NC)C(O)c5ccc(c(Cl)c5)Oc5cc4cc(c5OC4OC(CO)C(O)C(O)C4OC4CC(C)(N)C(O)C(C)O4)Oc4ccc(cc4)C(OC4CC(C)(N)C(O)C(C)O4)C(NC2=O)C(=O)NC3C(=O)NC)cc1 (stereo not shown) [Compound 3]	24 ± 18 µM	95 ± 14.1 µM	5.1 ± 3.3 µM	22 ± 0.3 µM	20 µM	–	–	–	–	–
CN[C@H](CC(C)C)C(=O)N[C@H]1C(=O)N[C@@H](CC(N)=O)C(=O)N[C@H]2C(=O)N[C@H]3C(=O)N[C@H](C(=O)N[C@H](C(=O)O)c4cc(O)cc(O)c4-c4cc3ccc4O)[C@H](O)c3ccc(c(Cl)c3)Oc3cc2cc(c3O)Oc2ccc(cc2Cl)[C@H]1O [Vancomycin aglycon]	> 500 µM	> 500 µM	65 ± 7.1 µM	> 500 µM	250 µM	–	–	–	–	–
CNCc1c(O)cc2c(c1O)-c1cc(ccc1O)C1NC(=O)C3NC(=O)C4NC(=O)C(Cc5ccc(c(Cl)c5)Oc5cc3cc(c5O)Oc3ccc(cc3Cl)C(O)C(NC1=O)C(=O)NC2C(=O)NC)NC(=O)C(N)c1ccc(O)c(c1)Oc1cc(O)cc4c1 (stereo not shown) [Compound 45]	> 500 µM	> 500 µM	15 ± 7.1 µM	> 500 µM	17.5 ± 10.6 µM	–	–	–	–	–
C[N+](C)(C)CCCNC(=O)C1NC(=O)C2NC(=O)C(NC(=O)C3NC(=O)C4NC(=O)C(Cc5ccc(c(Cl)c5)Oc5cc3cc(c5O)Oc3ccc(cc3Cl)C2O)NC(=O)C(N)c2ccc(O)c(c2)Oc2cc(O)cc4c2)c2ccc(O)c(c2)-c2c1cc(O)c(CN1CCN(Cc3ccc(-c4ccccc4)cc3)CC1)c2O (stereo not shown) [Compound 29]	35 ± 8.2 µM	> 250 µM	4.5 ± 0.7 µM	26 ± 8.1 µM	22 ± 3.5 µM	–	–	–	–	–
CCCCCCCCCC[N+](C)(C)CCCNCc1c(O)cc2c(c1O)-c1cc(ccc1O)C1NC(=O)C3NC(=O)C(CC(N)=O)NC(=O)C(NC(=O)C(CC(C)C)NC)C(O)c4ccc(c(Cl)c4)Oc4cc3cc(c4OC3OC(CO)C(O)C(O)C3OC3CC(C)(N)C(O)C(C)O3)Oc3ccc(cc3)C(OC3CC(C)(N)C(O)C(C)O3)C(NC1=O)C(=O)NC2C(=O)NCCCN(C)C (stereo not shown) [Compound 4]	33 ± 5 µM	27 ± 7 µM	7 µM	16 ± 6 µM	> 20 µM	–	–	–	–	–
CCCCc1ccc(CNC2C(Oc3c4cc5cc3Oc3ccc(cc3Cl)C(O)C3NC(=O)C(NC(=O)C5NC(=O)C5NC(=O)C(Cc6ccc(cc6)O4)NC(=O)C(NC)c4ccc(O)c(c4)Oc4cc(O)c(Cl)c5c4)c4ccc(O)c(c4)-c4c(O)cc(O)cc4C(C(=O)NCCCN(C)C)NC3=O)OC(C(=O)NCCCN(C)C)C(O)C2O)cc1 (stereo not shown) [Compound 12]	66 ± 20 µM	> 250 µM	12 ± 3.5 µM	36 ± 14 µM	> 50 µM	–	–	–	–	–
CCCCOc1ccc(CNC2C(Oc3c4cc5cc3Oc3ccc(cc3Cl)C(O)C3NC(=O)C(NC(=O)C5NC(=O)C5NC(=O)C(Cc6ccc(cc6)O4)NC(=O)C(N(C)Cc4ccc(OCCCC)cc4)c4ccc(O)c(c4)Oc4cc(O)c(Cl)c5c4)c4ccc(O)c(c4)-c4c(O)cc(O)cc4C(C(=O)NCCCN(C)C)NC3=O)OC(C(=O)NCCCN(C)C)C(O)C2O)cc1 (stereo not shown) [Compound 11]	18 ± 2.5 µM	80 ± 6 µM	5 ± 0.7 µM	20 ± 7.5 µM	> 10 µM	–	–	–	–	–
CNC(CC(C)C)C(=O)NC1C(=O)NC(CC(N)=O)C(=O)NC2C(=O)NC3C(=O)NC(C(=O)NC(C(=O)O)c4cc(O)cc(O)c4-c4cc3ccc4O)C(O)c3ccc(cc3)Oc3cc2cc(c3O)Oc2ccc(cc2Cl)C1O (stereo not shown) [Eremomycin aglycon]	> 500 µM	> 500 µM	50 ± 28 µM	> 500 µM	250 µM	–	–	–	–	–
CNC(=O)C1NC(=O)C2NC(=O)C(NC(=O)C3NC(=O)C(CC(N)=O)NC(=O)C(NC(=O)C(CC(C)C)NC)C(O)c4ccc(c(Cl)c4)Oc4cc3cc(c4O)Oc3ccc(cc3)C2O)c2ccc(O)c(c2)-c2c1cc(O)c(CN1CCN(Cc3ccc(-c4ccccc4)cc3)CC1)c2O (stereo not shown) [Compound 8]	> 100 µM	> 100 µM	4 ± 1.7 µM	> 100 µM	5.5 ± 0.7 µM	2.3 µM	1.5 µM	> 50 µM	≧20 μM	pronounced activity
CCCCCCCCCC[N+](C)(C)CCCNCc1c(O)cc2c(c1O)-c1cc(ccc1O)C1NC(=O)C3NC(=O)C4NC(=O)C(Cc5ccc(c(Cl)c5)Oc5cc3cc(c5O)Oc3ccc(cc3Cl)C(O)C(NC1=O)C(=O)NC2C(=O)NCCCN(C)C)NC(=O)C(N)c1ccc(O)c(c1)Oc1cc(O)cc4c1 (stereo not shown) [Compound 34]	68 ± 1 µM	50 ± 8 µM	2.7 ± 1.84 µM	23 ± 11 µM	4.5 ± 0.7 µM	–	–	–	–	–
O=C(NC1C(=O)NC2Cc3ccc(c(Cl)c3)Oc3cc4cc(c3O)Oc3ccc(cc3Cl)C(O)C3NC(=O)C(NC(=O)C4NC(=O)C(NC2=O)c2cc(O)cc(c2)Oc2cc1ccc2O)c1ccc(O)c(c1)-c1c(O)cc(O)cc1C(C(=O)O)NC3=O)OC12CC3CC(CC(C3)C1)C2 (stereo not shown) [Compound 49]	25 ± 0.99 µM	104 ± 3 µM	13 ± 9.9 µM	22 ± 0.1 µM	6 ± 1.4 µM	–	–	–	–	–
CCCCCCCCCC[N+](C)(C)CCCNCc1c(O)cc2c(c1O)-c1cc(ccc1O)C1NC(=O)C3NC(=O)C4NC(=O)C(Cc5ccc(c(Cl)c5)Oc5cc3cc(c5O)Oc3ccc(cc3Cl)C(O)C(NC1=O)C(=O)NC2C(=O)NCCCCCCN)NC(=O)C(N)c1ccc(O)c(c1)Oc1cc(O)cc4c1 (stereo not shown) [Compound 42]	72 ± 6 µM	66 ± 2 µM	1.8 ± 0.49 µM	38 ± 1 µM	7 µM	–	–	–	–	–
CNC1C(=O)NC2Cc3ccc(cc3)Oc3cc4cc(c3OC3OC(C(=O)NCCC[N+](C)(C)Cc5ccc(-c6ccccc6)cc5)C(O)C(O)C3N)Oc3ccc(cc3Cl)C(O)C3NC(=O)C(NC(=O)C4NC(=O)C(NC2=O)c2cc(cc(O)c2Cl)Oc2cc1ccc2O)c1ccc(O)c(c1)-c1c(OC2OC(CO)C(O)C(O)C2O)cc(O)cc1C(C(=O)NCCC[N+](C)(C)Cc1ccc(-c2ccccc2)cc1)NC3=O (stereo not shown) [Compound 10]	27 ± 14 µM	32 ± 5 µM	4 ± 1.4 µM	44 ± 2.9 µM	> 10 µM	–	–	–	–	–
NCCCCCCCCCCNC(=O)C1NC(=O)C2NC(=O)C(NC(=O)C3NC(=O)C4NC(=O)C(Cc5ccc(c(Cl)c5)Oc5cc3cc(c5O)Oc3ccc(cc3Cl)C2O)NC(=O)C(N)c2ccc(O)c(c2)Oc2cc(O)cc4c2)c2ccc(O)c(c2)-c2c(O)cc(O)cc21 (stereo not shown) [Compound 43]	225 ± 8 µM	402 ± 138 µM	6.5 ± 0.7 µM	≥ 500 µM	12.5 ± 3.5 µM	–	–	–	–	–
CCCCCCCCCCNCc1c(O)cc2c(c1O)-c1cc(ccc1O)C1NC(=O)C3NC(=O)C4NC(=O)C(Cc5ccc(c(Cl)c5)Oc5cc3cc(c5O)Oc3ccc(cc3Cl)C(O)C(NC1=O)C(=O)NC2C(=O)NCCCN1CCCCC1C)NC(=O)C(N)c1ccc(O)c(c1)Oc1cc(O)cc4c1 (stereo not shown) [Compound 22]	182 ± 31 µM	211 ± 1 µM	1.3 ± 0.92 µM	57 ± 15 µM	7 µM	–	–	–	–	–
CCCCCCCCCC[N+]1(C)CCN(Cc2c(O)cc3c(c2O)-c2cc(ccc2O)C2NC(=O)C4NC(=O)C5NC(=O)C(Cc6ccc(c(Cl)c6)Oc6cc4cc(c6O)Oc4ccc(cc4Cl)C(O)C(NC2=O)C(=O)NC3C(=O)NCCCN(C)C)NC(=O)C(N)c2ccc(O)c(c2)Oc2cc(O)cc5c2)CC1 (stereo not shown) [Compound 38]	91 ± 13 µM	> 100 µM	2.1 ± 0.92 µM	51 ± 9 µM	10 µM	–	–	–	–	–
Teicoplanin [reference compound]	> 500 µM	> 500 µM	18 ± 3.5 µM	> 500 µM	100 µM	–	–	–	–	–

Reference: patent US20050250677A1, “Glycopeptide antibiotic derivatives” (priority 2002, published 2005)
